The source of these data is patent publication US20240182436A1, “SUBSTITUTED SULFONAMIDE-CHROMAN COMPOUNDS, AND PHARMACEUTICAL COMPOSITIONS, AND METHODS OF USE THEREOF” (priority 2021, published 2024).

Structures are written as SMILES. Bounds are passed on as bounds.

The first experiment relates to Harmaline-induced tremor. The experiment is described as follows: Harmaline-induced Tremor Model. The class given is in vivo. As to conditions: Mus musculus, ip, adult male CD1 mice; test article 30 mg/kg i.p.; harmaline 30 mg/kg i.p.; read-out: Tremor Suppression Activity (magnitude of tremor suppression in percent compared to vehicle). An excerpt: Harmaline-induced Tremor: Harmaline-induced tremor is widely recognized as an animal model of Essential Tremor (ET). Following acute administration, harmaline produces an 8-16 Hz tremor in rodents, cats, and monkeys that, like ET, is postural and kinetic, involving appendicular and axial musculature (Handforth, A. (2012). Harmaline tremor: underlying mechanisms in a potential animal model of essential tremor. Tremor and Other Hyperkinetic Movements (NY), 2, 02-92-769-1; Handforth, A. (2016). Linking Essential Tremor to the Cerebellum-Animal Model Evidence. Cerebellum, 15(3), 285-298; LeDoux, M. (2005). Harmaline tremor. In Movement Disorders. Elsevier Inc.; Louis, E. D. (2014). Re-thinking the biology of essential tremor: From models to morphology. Parkinsonism and Related Disorders, 20 (SUPPL.1), S88-S93). […] Clinical agents that suppress ET in patients are generally effective in the harmaline-induced tremor model (Handforth 2016). Following acute dosing of harmaline in mice, the tremor frequency (10-20 Hz) is typically recorded using an automated force plate-based system.
Procedure: Tremor activity was measured using a custom-made testing apparatus containing a piezoelectric sensing platform which was connected to an amplifier (A-M Systems model 1700). Adult male CD1 mice were brought to the experiment room for acclimatization 1 h prior to testing. Mice were first placed inside the testing apparatus for 10 min baseline habituation. After the initial habituation, mice were treated with vehicle (10 ml/kg) or test article (30 mg/kg, i.p.) and placed back in the apparatus for an additional 20 min baseline recording. Subsequently, animals were injected with harmaline (30 mg/kg, i.p.) and tremor activity was measured for 20 min. The electric signal of tremor activity was amplified at a sampling rate of 512 Hz with a multichannel amplifier and then acquired, quantized, and digitized by a data acquisition unit (CED Micro 1401). The software Spike2 (v 7.07, Cambridge Electronic Design, Cambridge, UK) was used to analyze the tremor signal by performing Fourier transformation of the data into frequency spectra. Changes in absolute power were expressed relative to each animal's 20-min baseline for the frequencies of 10-20 Hz. Comparisons between treatment and respective vehicle groups were assessed with two-tailed, Student's t-test. The level of statistical significance was defined as p<0.05 (see, e.g., Table 2.1) The magnitude of tremor suppression in percent compared to vehicle is shown in Table 2.2.
A tremor suppression score was defined as the magnitude of tremor suppression in percent compared to vehicle: ≤24% (D), 25-55% (C), 56-70% (B) and 71-100% (A). Not tested (---).
On to `C[C@@H]1COc2cc(F)c(F)cc2[C@H]1CS(N)(=O)=O` (stereo in doubt) [Compound 9, ((3S*,4S*)-6,7-difluoro-3-methylchroman-4-yl)methanesulfonamide], for which the inhibition in vivo at 30 mg/kg fell in the range of 25 to 55%.
Same read-out and setting: under `NS(=O)(=O)CC1CCOc2cc(F)c(F)cc21` (single isomer, unassigned) [Compound 29, (S*)-(6,7-difluorochroman-4-yl)methanesulfonamide] stands 56 to 70%; under `NS(=O)(=O)CC1CCOc2cc(Cl)ccc21` (single isomer, unassigned) [Compound 31, (S*)-(7-chlorochroman-4-yl)methanesulfonamide], 71 to 100%; under `CN([C@@H]1CCOc2cc(F)ccc21)S(N)(=O)=O` (stereo in doubt) [Compound 70, 4(R*))-7-fluoro-4[methyl(sulfamoyl)amino]-3,4-dihydro-2(H)-chromene], no more than 24%.
Same read-out and setting: under `C[C@H]1COc2cc(F)c(F)cc2[C@@H]1CS(N)(=O)=O` (stereo in doubt) [Compound 10, ((3R*,4R*)-6,7-difluoro-3-methylchroman-4-yl)methanesulfonamide] stands no more than 24%; under `C[C@@H]1C[C@H](CS(N)(=O)=O)c2ccccc2O1` (stereo in doubt) [Compound 33, ((2R*,4S*)-2-methylchroman-4-yl)methanesulfonamide], 25 to 55%.
Same read-out and setting: under `NS(=O)(=O)CC1CCOc2cc(C(F)(F)F)ccc21` (single isomer, unassigned) [Compound 37, (S*)-(7-(trifluoromethyl)chroman-4-yl)methanesulfonamide] stands 56 to 70%; under `C[C@H]1COc2ccccc2[C@@H]1CS(N)(=O)=O` (stereo in doubt) [Compound 42, ((3R*,4R*)-3-methylchroman-4-yl)methanesulfonamide], no more than 24%; under `C[C@@H]1COc2ccccc2[C@H]1CS(N)(=O)=O` (stereo in doubt) [Compound 41, ((3S*,4S*)-3-methylchroman-4-yl)methanesulfonamide], 56 to 70%.
Take `CC[C@@H]([C@H]1CCOc2cc(F)ccc21)S(N)(=O)=O` (stereo in doubt) [Compound 25, (S*)-1-((S*)-7-fluorochroman-4-yl)propane-1-sulfonamide]: the inhibition in vivo at 30 mg/kg was in the range of 56 to 70%.
The same measure, in the same setting: the value for `C[C@@H]1COc2cc(F)ccc2[C@@H]1NS(N)(=O)=O` (stereo in doubt) [Compound 73, (3(S*),4(R*))-7-fluoro-3-methyl-4-(sulfamoylamino)-3,4-dihydro-2(H)-chromene] was 56 to 70%.

Staying with this experiment, now noted: adult male CD1 mice; test article 30 mg/kg i.p.; harmaline 30 mg/kg i.p.
Take `CC1(C)COc2cc(F)ccc2C1CS(N)(=O)=O` (single isomer, unassigned) [Compound 44, (R*)-(7-fluoro-3,3-dimethylchroman-4-yl)methanesulfonamide]: the “Tremor Suppression Activity (magnitude of tremor suppression in percent compared to vehicle)” value is on record as “C (25-55% (C))”.
For the molecule `NS(=O)(=O)CC1CC2(CCC2)Oc2cc(F)ccc21` (single isomer, unassigned) [Compound 3, (S*)-(7-fluorospiro[chromane-2,1′-cyclobutan]-4-yl)methane-sulfonamide], the “Tremor Suppression Activity (magnitude of tremor suppression in percent compared to vehicle)” value was “C (25-55% (C))”.
Same read-out and setting: the value for `CC1(C)CC(CS(N)(=O)=O)c2cc(F)c(F)cc2O1` (single isomer, unassigned) [Compound 6, (R*)-(6,7-difluoro-2,2-dimethylchroman-4-yl)methanesulfonamide] was “A (71-100% (A))”; that for `NS(=O)(=O)CC1CC2(CC2)Oc2cc(F)ccc21` (single isomer, unassigned) [Compound 2, (R*)-(7-fluorospiro[chromane-2,1′-cyclopropan]-4-yl)methanesulfonamide] was “A (71-100% (A))”.
Same read-out and setting: under `NS(=O)(=O)CC1CCOc2cc(Cl)ccc21` (single isomer, unassigned) [Compound 32, (R*)-(7-chlorochroman-4-yl)methanesulfonamide] stands “B (56-70% (B))”; under `NS(=O)(=O)C1(C2CCOc3cc(F)ccc32)CC1` (single isomer, unassigned) [Compound 28, (R*)-1-(7-fluorochroman-4-yl)cyclopropane-1-sulfonamide], “C (25-55% (C))”.

Still in this experiment, the particulars now being: adult male CD1 mice; test article 30 mg/kg i.p.; harmaline 30 mg/kg i.p.; 10-20 Hz power over 20 min relative to 20-min baseline.
With `CC1(C)COc2cc(F)ccc2C1CS(N)(=O)=O` (single isomer, unassigned) [Compound 44, (R*)-(7-fluoro-3,3-dimethylchroman-4-yl)methanesulfonamide], the “Tremor power relative to baseline (mean ± s.e.m.)” value is 518 ± 109.
